The values that follow come from PubChem BioAssay (NCI).

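How tested: cells in 96-well plates exposed to compound for 48 hours at five concentrations. GI50 marks 50% less growth. TGI: total growth inhibition.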

Holding throughout (test): NCI-60 cell line screen, 48 h
Assay [1] deals with A549 NSCLC.
Assay [2] relates to SW-620 colon.
Assay [3] relates to BT-549 breast.
Assay [4] relates to OVCAR-4 ovarian.
In assay [5] the test system is KM12 colon.
Assay [6] has as its system ACHN renal.
In assay [7] the test system is A498 renal.
Assay [8] concerns OVCAR-3 ovarian.
Assay [9] relates to OVCAR-5 ovarian.
The subject of assay [10] is EKVX NSCLC.

Take `CCN(CC)CCCCNc1ncc2cc(-c3cc(OC)cc(OC)c3)c(NC(=O)NC(C)(C)C)nc2n1`: the GI50 in assay [1] is 7.84 µM; in [2] it was 8.15 µM; in [3], 2.15 µM; in [4] it was 1.84 µM; in [5], 9.65 µM; in assay [6] it was 3.92 µM. In addition, the figures for the GI50 in assay [7], in [8] and in [9] were 0.0209 µM, 11.9 µM and 15.5 µM, respectively. The TGI worked out at 23 µM in assay [1]; 23 µM in assay [2]; 18 µM in assay [3]; 25.5 µM in [4]; 23 µM in [5]; 16.4 µM in assay [6]. Besides, the TGI in [7] came out at 0.097 µM; in [8], 25 µM; in [9], 31.4 µM.
For `CC1(C)N=C(N)N=C(N)N1c1cccc(CCCCOc2ccccc2)c1`, the GI50 in [1] was 0.0562 µM; in assay [2], 0.0164 µM; in assay [3], 1.15 µM; in assay [4] it was 0.441 µM; in [5] it was 0.0398 µM; in assay [6], 3.85 µM. For the same compound, the GI50 in [7] was 1.8 µM; in assay [8] it was 0.547 µM; in assay [9], less than 0.0335 µM. Besides, the TGI in assay [1] is 98.8 µM; in assay [2] it was greater than 100 µM; in [3] it was 16.8 µM; in assay [4] it was 38.6 µM; in assay [5], 25 µM; in assay [6], greater than 100 µM. Further, the TGI is greater than 81.3 µM in assay [7], 21 µM in [8] and greater than 100 µM in assay [9].
Turning to H-HIIKKIRTWYRKAWHVLGKV-NH2, the GI50 is 5.51 µM in [1]; 9.53 µM in [2]; 12.8 µM in assay [3]; 12.8 µM in [4]; 2.49 µM in [5]; 13.2 µM in assay [6]. Besides, the GI50 in assay [8] was 10.4 µM; in assay [10], 2.37 µM; in [9] it was 6.22 µM. For the same compound, the TGI in assay [1] is greater than 100 µM; in assay [2], greater than 100 µM; in assay [3] it was 32.1 µM; in assay [4], 47.5 µM; in assay [5] it was 6.58 µM; in [6], 28.6 µM. The TGI was found to be 39.3 µM in assay [8], 6.73 µM in assay [10] and 20.5 µM in assay [9].
Take `O=C(Cc1ccccc1)NC(c1ccc(Cl)cc1)c1c(O)ccc2ccccc12` (centres undefined): the GI50 is 3.68 µM in assay [1]; 3.22 µM in [2]; 3.8 µM in assay [3]; 2.73 µM in assay [4]; 3.62 µM in assay [5]; 2.55 µM in [6]. In addition, the GI50 in assay [7] is 0.985 µM; in assay [8], 2.97 µM; in assay [9], 3.16 µM. The TGI stood at 13.3 µM in assay [1]; 13.4 µM in assay [2]; 12.8 µM in assay [3]; 10.2 µM in [4]; 11.7 µM in assay [5]; 6.9 µM in assay [6]. The values for the TGI in assay [7], in assay [8] and in assay [9] were 7.72 µM, 7.64 µM and 10.2 µM, respectively.
As to `Cc1nn(-c2ccccc2)c2nc3c(nc12)C1=NCCN1C(c1ccc(Cl)cc1)N3` (centres undefined), the GI50 in [1] is 4.63 µM; in assay [2], 1.9 µM; in [3] it was 12.6 µM; in assay [4], 7.1 µM; in assay [5], 3.62 µM; in assay [6] it was 3.62 µM. Also, the GI50 in assay [7] is 4.01 µM; in assay [8] it was 2.63 µM; in assay [9], 11.4 µM. Besides, the TGI in assay [1] is 17.7 µM; in [2] it was 3.96 µM; in [3], 27.1 µM; in assay [4] it was 20.9 µM; in [5], 12.2 µM; in assay [6], 13.2 µM. Further, the TGI in assay [7] stood at 17.9 µM; in [8], 7.18 µM; in [9], 24.3 µM.
Regarding `N#C/C(=C1C=C/C(=N\O)C(Cl)=C\1)c1ccccc1`, the GI50 in assay [1] was 3.27 µM; in [2], 1.42 µM; in [3], 4.36 µM; in [4], 12.7 µM; in [5], 0.772 µM; in assay [6], 0.733 µM. Moreover, the GI50 in assay [7] is 3.34 µM; in assay [8], 3.31 µM; in assay [9], 3.71 µM. For the same compound, the TGI is greater than 100 µM in assay [1]; 12.9 µM in assay [2]; 16.2 µM in assay [3]; 51.5 µM in assay [4]; 10.4 µM in assay [5]; 11.6 µM in [6]. For the same compound, the TGI came out at 64.7 µM in assay [7], 17 µM in assay [8] and 13.7 µM in assay [9].
Take `CCCC(=O)Nc1ccc2c(c1)CN1C(=O)c3ccccc3C1=N2`: the TGI in [1], in assay [2], in assay [3], in assay [4], in assay [5] and in assay [6] was greater than 100 µM throughout. Besides, the TGI in assay [8] and in [9] was greater than 100 µM in each case.
For the compound `O=C(O)c1cccc2cccc(C(=O)O)c12.[Hg]`, the GI50 is 20.4 µM in assay [1]; 12.7 µM in assay [2]; 18 µM in assay [4]; 18.3 µM in assay [5]; 17.7 µM in [6]; 18.3 µM in [7]. The figures for the GI50 in assay [8], in assay [10] and in assay [9] were 15.3 µM, greater than 100 µM and 19.4 µM, respectively. Moreover, the TGI in [1] stood at 42.3 µM; in assay [2], 32 µM; in [4], 32.6 µM; in assay [5], 32.4 µM; in assay [6], 31.8 µM; in [7], 32.3 µM. Also, the TGI in assay [8] was 30 µM; in [10], greater than 100 µM; in assay [9] it was 33.5 µM.
